Data taken from PubChem BioAssay AID2792 (Sanford-Burnham Center for Chemical Genomics, 2010).
Calls of active or inactive are those of the source. The rule behind the calls is not given here.

tested on: NF-kappaB luciferase reporter cells, PMA/ionomycin induced; assay: inhibitors of PMA/ionomycin-induced NF-kB reporter, SAR follow-up, cell-based, PMA/ionomycin inducer, luciferase, set 2 (AID 2792)

SMILES | IC50
CC(C)Sc1nc2c(c(=O)[nH]c(=O)n2C)n1Cc1ccccc1 | > 25 µM (inactive)
C/C(Cl)=C\Cn1c(NCCc2ccccc2)nc2c1c(=O)n(C)c(=O)n2C | > 25 µM (inactive)
CCCCCn1c(SCCc2ccccc2)nc2c1c(=O)[nH]c(=O)n2C | > 25 µM (inactive)
CC(C)n1c(SCCCc2ccccc2)nc2c1c(=O)[nH]c(=O)n2C | > 25 µM (inactive)
Nc1nc2ccccc2n1CCOc1ccc(Cl)cc1 | > 25 µM (inactive)
CCCCn1c(SCC(=O)c2ccccc2)nc2c1c(=O)[nH]c(=O)n2C | > 25 µM (inactive)
C/C=C/Cn1c(SCc2ccc(Cl)cc2)nc2c1c(=O)[nH]c(=O)n2C | > 25 µM (inactive)
COCCn1c(SCCCc2ccccc2)nc2c1c(=O)[nH]c(=O)n2C | > 25 µM (inactive)
Cn1c(=O)[nH]c(=O)c2c1nc([N+](=O)[O-])n2Cc1ccccc1 | > 25 µM (inactive)
CCCCn1c(SCC(=O)Nc2nnc(CC)s2)nc2c1c(=O)n(C)c(=O)n2C | > 25 µM (inactive)
C=CCn1c(SCCCc2ccccc2)nc2c1c(=O)[nH]c(=O)n2C | > 25 µM (inactive)
C/C=C/Cn1c(SCc2ccccc2)nc2c1c(=O)[nH]c(=O)n2C | > 25 µM (inactive)
C/C=C/Cn1c(SCCCc2ccccc2)nc2c1c(=O)[nH]c(=O)n2C | > 25 µM (inactive)
CCCn1c(SCCc2ccccc2)nc2c1c(=O)[nH]c(=O)n2C | > 25 µM (inactive)
